Our source for the EC50 values is patent US12703729B2, “GIP agonist compounds and methods” (Zealand Pharma A/S, priority 2014, dated 2026).

Starred links: 1 amine or outer side, 2 acyl side, 3 side chain; linkers in the order of their positions; H or OH if unused. Non-standard residues stand in square brackets, D forms with d. Residues, ends and D or L forms follow the SMILES beside them. Groups on a side chain read outwards from the residue. *: point of attachment. C20 diacid = O=C(O)CCCCCCCCCCCCCCCCCCC(=O)*; γGlu = O=C(O)[C@H](CCC(=O)[*:2])N[*:1]; Palmitoyl = CCCCCCCCCCCCCCCC(=O)*; AEEA = NCCOCCOCC(=O)O; Aib = CC(C)(N)C(=O)O

One assay addresses T1, human GIP R (Homo sapiens, UniProt P48546).
T1 sequence (P48546 22-466): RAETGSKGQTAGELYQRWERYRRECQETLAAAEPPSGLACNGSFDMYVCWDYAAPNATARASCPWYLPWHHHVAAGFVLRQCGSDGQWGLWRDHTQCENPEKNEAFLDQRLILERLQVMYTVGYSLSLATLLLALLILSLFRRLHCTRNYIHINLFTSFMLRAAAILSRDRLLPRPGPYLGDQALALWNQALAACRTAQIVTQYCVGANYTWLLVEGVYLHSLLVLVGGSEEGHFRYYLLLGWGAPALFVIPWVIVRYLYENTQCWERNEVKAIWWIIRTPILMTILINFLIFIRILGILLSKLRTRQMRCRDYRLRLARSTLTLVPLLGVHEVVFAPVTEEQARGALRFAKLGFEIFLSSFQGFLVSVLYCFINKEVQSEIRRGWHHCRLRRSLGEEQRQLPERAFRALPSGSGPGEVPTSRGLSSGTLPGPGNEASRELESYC
In words: cell-based.

In assay [1] the target is T2, human GIP receptor (GIP R) (Homo sapiens, UniProt P48546).
T2 sequence (P48546 22-466): T1 sequence (P48546 22-466)
Kind of assay: Activity assay at human GIP receptor, cAMP induction (AlphaScreen), Example 3. A general note: Bead proximity is the source of the signal in Alpha formats.

Regarding `CCCCCCCCCCCCCCCC(=O)N[C@@H](CCC(=O)NCCCC[C@H](NC(=O)[C@H](CCCCN)NC(=O)[C@H](CC(=O)O)NC(=O)[C@H](CC(C)C)NC(=O)[C@H](CCC(=O)O)NC(=O)[C@@H](NC(=O)[C@H](CO)NC(=O)[C@H](Cc1ccc(O)cc1)NC(=O)[C@H](CC(=O)O)NC(=O)[C@H](CO)NC(=O)[C@@H](NC(=O)[C@H](Cc1ccccc1)NC(=O)[C@@H](NC(=O)CNC(=O)[C@H](CCC(=O)O)NC(=O)C(C)(C)NC(=O)[C@@H](N)Cc1ccc(O)cc1)[C@@H](C)O)[C@@H](C)CC)[C@@H](C)CC)C(=O)N[C@@H](Cc1c[nH]cn1)C(=O)N[C@@H](CCC(N)=O)C(=O)N[C@@H](CCC(N)=O)C(=O)N[C@@H](CC(=O)O)C(=O)N[C@@H](Cc1ccccc1)C(=O)N[C@H](C(=O)N[C@@H](CC(N)=O)C(=O)N[C@@H](Cc1c[nH]c2ccccc12)C(=O)N[C@@H](CC(C)C)C(=O)N[C@@H](CC(C)C)C(=O)N[C@@H](C)C(=O)N[C@@H](CCC(N)=O)C(=O)NCC(=O)N1CCC[C@H]1C(=O)N[C@@H](CO)C(=O)N[C@@H](CO)C(=O)NCC(=O)N[C@@H](C)C(=O)N1CCC[C@H]1C(=O)N1CCC[C@H]1C(=O)N1CCC[C@H]1C(=O)N[C@@H](CO)C(N)=O)C(C)C)C(=O)O` [Compound 1] (H-Y[Aib]EGTFISDYSIELDKK([γGlu-Palmitoyl])HQQDFVNWLLAQGPSSGAPPPS-NH2), the EC50 at human GIP R is 0.008 nM.
Turning to `CCCCCCCCCCCCCCCC(=O)N[C@@H](CCC(=O)NCCCC[C@H](NC(=O)[C@H](CC(=O)O)NC(=O)[C@H](CC(C)C)NC(=O)[C@H](CCC(=O)O)NC(=O)[C@@H](NC(=O)[C@H](CO)NC(=O)[C@H](Cc1ccc(O)cc1)NC(=O)[C@H](CC(=O)O)NC(=O)[C@H](CO)NC(=O)[C@@H](NC(=O)[C@H](Cc1ccccc1)NC(=O)[C@@H](NC(=O)CNC(=O)[C@H](CCC(=O)O)NC(=O)C(C)(C)NC(=O)[C@@H](N)Cc1ccc(O)cc1)[C@@H](C)O)[C@@H](C)CC)[C@@H](C)CC)C(=O)N[C@H](C(=O)N[C@@H](Cc1c[nH]cn1)C(=O)N[C@@H](CCC(N)=O)C(=O)N[C@@H](CCC(N)=O)C(=O)N[C@@H](CC(=O)O)C(=O)N[C@@H](Cc1ccccc1)C(=O)N[C@H](C(=O)N[C@@H](CC(N)=O)C(=O)N[C@@H](Cc1c[nH]c2ccccc12)C(=O)N[C@@H](CC(C)C)C(=O)N[C@@H](CC(C)C)C(=O)N[C@@H](C)C(=O)N[C@@H](CCC(N)=O)C(=O)NCC(=O)N1CCC[C@H]1C(=O)N[C@@H](CO)C(=O)N[C@@H](CO)C(=O)NCC(=O)N[C@@H](C)C(=O)N1CCC[C@H]1C(=O)N1CCC[C@H]1C(=O)N1CCC[C@H]1C(=O)N[C@@H](CO)C(N)=O)C(C)C)[C@@H](C)CC)C(=O)O` [Compound 2] (H-Y[Aib]EGTFISDYSIELDK([γGlu-Palmitoyl])IHQQDFVNWLLAQGPSSGAPPPS-NH2), the concentration for a half-maximal effect (EC50) on human GIP R was 0.013 nM; in assay [1] it was 0.008 nM.
The like results for `CCCCCCCCCCCCCCCC(=O)N[C@@H](CCC(=O)NCCCC[C@H](NC(=O)[C@H](CCCCN)NC(=O)[C@H](CCC(=O)O)NC(=O)[C@H](CC(C)C)NC(=O)[C@H](CCC(=O)O)NC(=O)[C@@H](NC(=O)[C@H](CO)NC(=O)[C@H](Cc1ccc(O)cc1)NC(=O)[C@H](CC(=O)O)NC(=O)[C@H](CO)NC(=O)[C@@H](NC(=O)[C@H](Cc1ccccc1)NC(=O)[C@@H](NC(=O)CNC(=O)[C@H](CCC(=O)O)NC(=O)C(C)(C)NC(=O)[C@@H](N)Cc1ccc(O)cc1)[C@@H](C)O)[C@@H](C)CC)[C@@H](C)CC)C(=O)N[C@@H](Cc1c[nH]cn1)C(=O)N[C@@H](CCC(N)=O)C(=O)N[C@@H](CCC(N)=O)C(=O)N[C@@H](CC(=O)O)C(=O)N[C@@H](Cc1ccccc1)C(=O)N[C@H](C(=O)N[C@@H](CC(N)=O)C(=O)N[C@@H](Cc1c[nH]c2ccccc12)C(=O)N[C@@H](CC(C)C)C(=O)N[C@@H](CC(C)C)C(=O)N[C@@H](C)C(=O)N[C@@H](CCC(N)=O)C(=O)NCC(=O)N1CCC[C@H]1C(=O)N[C@@H](CO)C(=O)N[C@@H](CO)C(=O)NCC(=O)N[C@@H](C)C(=O)N1CCC[C@H]1C(=O)N1CCC[C@H]1C(=O)N1CCC[C@H]1C(=O)N[C@@H](CO)C(N)=O)C(C)C)C(=O)O` [Compound 3] (H-Y[Aib]EGTFISDYSIELEKK([γGlu-Palmitoyl])HQQDFVNWLLAQGPSSGAPPPS-NH2) were, in that order, 0.014 nM and 0.014 nM.
For the compound `CC[C@H](C)[C@H](NC(=O)[C@H](CCCCN)NC(=O)[C@H](CC(=O)O)NC(=O)[C@H](CC(C)C)NC(=O)[C@H](CCC(=O)O)NC(=O)[C@@H](NC(=O)[C@H](CO)NC(=O)[C@H](Cc1ccc(O)cc1)NC(=O)[C@H](CC(=O)O)NC(=O)[C@H](CO)NC(=O)[C@@H](NC(=O)[C@H](Cc1ccccc1)NC(=O)[C@@H](NC(=O)CNC(=O)[C@H](CCC(=O)O)NC(=O)C(C)(C)NC(=O)[C@@H](N)Cc1ccc(O)cc1)[C@@H](C)O)[C@@H](C)CC)[C@@H](C)CC)C(=O)N[C@@H](Cc1c[nH]cn1)C(=O)N[C@@H](CCC(N)=O)C(=O)N[C@@H](CCC(N)=O)C(=O)N[C@@H](CC(=O)O)C(=O)N[C@@H](Cc1ccccc1)C(=O)N[C@H](C(=O)N[C@@H](CC(N)=O)C(=O)N[C@@H](Cc1c[nH]c2ccccc12)C(=O)N[C@@H](CC(C)C)C(=O)N[C@@H](CC(C)C)C(=O)N[C@@H](C)C(=O)N[C@@H](CCC(N)=O)C(=O)NCC(=O)N1CCC[C@H]1C(=O)N[C@@H](CO)C(=O)N[C@@H](CO)C(=O)NCC(=O)N[C@@H](C)C(=O)N1CCC[C@H]1C(=O)N1CCC[C@H]1C(=O)N1CCC[C@H]1C(=O)N[C@@H](CO)C(=O)N[C@@H](CCCCNC(=O)COCCOCCNC(=O)COCCOCCNC(=O)CC[C@H](NC(=O)CCCCCCCCCCCCCCCCCCC(=O)O)C(=O)O)C(N)=O)C(C)C` [Compound 4] (H-Y[Aib]EGTFISDYSIELDKIHQQDFVNWLLAQGPSSGAPPPSK([AEEA-AEEA-γGlu-C20 diacid])-NH2), the values for the EC50 (at human GIP R; in assay [1]) were 0.013 nM and 0.014 nM, respectively.
Compound `CCCCCCCCCCCCCCCC(=O)N[C@@H](CCC(=O)NCCCC[C@H](NC(=O)CNC(=O)[C@H](CCCCN)NC(=O)[C@H](CCC(N)=O)NC(=O)[C@H](C)NC(=O)[C@H](CC(C)C)NC(=O)[C@H](CC(C)C)NC(=O)[C@H](Cc1c[nH]c2ccccc12)NC(=O)[C@H](CC(N)=O)NC(=O)[C@@H](NC(=O)[C@H](Cc1ccccc1)NC(=O)[C@H](CC(=O)O)NC(=O)[C@H](CCC(N)=O)NC(=O)[C@H](CCC(N)=O)NC(=O)[C@H](Cc1c[nH]cn1)NC(=O)[C@@H](NC(=O)[C@H](CCCCN)NC(=O)[C@H](CC(=O)O)NC(=O)[C@H](CC(C)C)NC(=O)[C@H](CCC(=O)O)NC(=O)[C@@H](NC(=O)[C@H](CO)NC(=O)[C@H](Cc1ccc(O)cc1)NC(=O)[C@H](CC(=O)O)NC(=O)[C@H](CO)NC(=O)[C@@H](NC(=O)[C@H](Cc1ccccc1)NC(=O)[C@@H](NC(=O)CNC(=O)[C@H](CCC(=O)O)NC(=O)C(C)(C)NC(=O)[C@@H](N)Cc1ccc(O)cc1)[C@@H](C)O)[C@@H](C)CC)[C@@H](C)CC)[C@@H](C)CC)C(C)C)C(N)=O)C(=O)O` [Compound 7] (H-Y[Aib]EGTFISDYSIELDKIHQQDFVNWLLAQKGK([γGlu-Palmitoyl])-NH2) displayed a half-maximal effective concentration (EC50) in assay [1] of 0.032 nM.

In general, EC50 refers to the concentration that produces a half-maximal response. Read a high EC50 as lower potency in that assay.
